Target: T1, human cannabinoid CB2 receptor (Homo sapiens, UniProt P34972)
T1 construct: expressed in transfected cells; host or cells: Saccharomyces cerevisiae strain MMY23
Test: Cannabinoid CB2 receptor agonist activity, yeast reporter assay (FDGlu fluorescence);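 for Emax: 100% equals maximal response of reference agonist HU210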
Type: cell-based
Settings: for Emax: read-out: efficacy value (Emax) at the cloned human cannabinoid CB2 receptor
Method: The cannabinoid CB2 receptor agonist activity of the compounds of formula (I) was determined in accordance with the following experimental method.
Yeast (Saccharomyces cerevisiae) cells expressing the human cannabinoid CB2 receptor were generated by integration of an expression cassette into the ura3 chromosomal locus of yeast strain MMY23. This cassette consisted of DNA sequence encoding the human CB2 receptor flanked by the yeast GPD promoter to the 5′ end of CB2 and a yeast transcriptional terminator sequence to the 3′ end of CB2. MMY23 expresses a yeast/mammalian chimeric G-protein alpha subunit in which the C-terminal 5 amino acids of Gpa1 are replaced with the C-terminal 5 amino acids of human Gαi3 (as described in Brown et al. (2000), Yeast 16:11-22). Cells were grown at 30° C. in liquid Synthetic Complete (SC) yeast media (Guthrie and Fink (1991), Methods in Enzymology, Vol. 194) lacking uracil, tryptophan, adenine and leucine to late logarithmic phase (approximately 6 OD600/ml).
Agonists were prepared as 10 mM stocks in DMSO. […] Agonist solutions in DMSO (1% final assay volume) were transferred into black, clear bottom, microtitre plates from NUNC (96- or 384-well). […] This mixture (50 ul per well for 384-well plates, 200 ul per well for 96-well plates) was added to agonist in the assay plates (Multidrop 384, Labsystems). After incubation at 30° C. for 24 hours, fluorescence resulting from degradation of FDGlu to fluorescein due to exoglucanase, an endogenous yeast enzyme produced during agonist-stimulated cell growth, was determined using a Spectrofluor microtitre plate reader (Tecan; excitation wavelength: 485 nm; emission wavelength: 535 nm). Fluorescence was plotted against compound concentration and iteratively curve fitted using a four parameter fit to generate a concentration effect value.
where Max[compound X] and Min[compound X] are the fitted maximum and minimum respectively from the concentration effect curve for compound X, and Max[HU210] and Min[HU210] are the fitted maximum and minimum respectively from the concentration effect curve for (6aR,10aR)-3-(1,1′-Dimethylheptyl)-6a,7,10,10a-tetrahydro-1-hydroxy-6,6-dimethyl-6H-dibenzo[b,d]pyran-9-methanol (HU210; available from Tocris). Equieffective molar ratio (EMR) values were calculated from the equation EMR=EC50 [compound X]/EC50 [HU210]
Where EC50 [compound X] is the EC50 of compound X and EC50 [HU210] is the EC50 of HU210.

T1 sequence (P34972 whole entry): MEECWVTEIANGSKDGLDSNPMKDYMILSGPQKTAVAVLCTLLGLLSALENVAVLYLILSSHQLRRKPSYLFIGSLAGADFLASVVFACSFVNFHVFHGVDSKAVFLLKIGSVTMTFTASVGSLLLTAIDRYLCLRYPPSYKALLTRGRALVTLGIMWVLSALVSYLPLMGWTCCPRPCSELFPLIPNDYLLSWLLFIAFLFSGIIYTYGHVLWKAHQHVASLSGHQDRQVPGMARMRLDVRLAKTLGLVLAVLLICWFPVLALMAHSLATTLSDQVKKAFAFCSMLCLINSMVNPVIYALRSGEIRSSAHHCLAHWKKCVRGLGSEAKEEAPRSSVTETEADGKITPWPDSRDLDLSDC

## O=C(NCC1CCCCC1)c1cnc(Nc2cccc(Cl)c2)cc1C(F)(F)F [Example 1, 2-(3-Chlorophenylamino)-4-trifluoromethylpyridine-5-carboxylic acid cyclohexylmethyl amide]
  Emax: > 50%

## CC(C)c1cc(Nc2cccc(Cl)c2)ncc1C(=O)NCC1CCCCC1 [Example 2, 6-(3-Chlorophenylamino)-N-cyclohexylmethyl-4-isopropylnicotinamide]
  EC50: < 300 nM
  Emax: > 50%

## CC(C)c1cc(Nc2ccc(Cl)c(Cl)c2)ncc1C(=O)NCC1CCCCC1 [Example 3, N-Cyclohexylmethyl-6-(3,4-dichloro-phenylamino)-4-isopropyl-nicotinamide]
  EC50: < 300 nM
  Emax: > 50%

## CC(C)c1cc(Nc2ccc(Cl)cc2Cl)ncc1C(=O)NCC1CCCCC1 [Example 5, N-Cyclohexylmethyl-6-(2,4-dichloro-phenylamino)-4-isopropyl-nicotinamide]
  EC50: < 300 nM
  Emax: > 50%

## CC(C)c1cc(Nc2cccc(Cl)c2)ncc1C(=O)NCC1CCC1 [Example 6, 6-(3-Chloro-phenylamino)-N-cyclobutylmethyl-4-isopropyl-nicotinamide]
  EC50: < 300 nM
  Emax: > 50%

## CC(C)c1cc(Nc2cccc(Cl)c2)ncc1C(=O)NCC1CCOCC1 [Example 7, 6-(3-Chloro-phenyl-amino)-4-isopropyl-N-(tetrahydro-pyran-4-ylmethyl)-nicotinamide]
  Emax: > 50%

## CC(C)c1cc(Nc2cccc(Br)c2)ncc1C(=O)NCC1CCOCC1 [Example 8, 6-(3-Bromo-phenyl-amino)-4-isopropyl-N-(tetrahydro-pyran-4-ylmethyl)-nicotinamide]
  Emax: > 50%

## COc1cccc(Nc2cc(C(C)C)c(C(=O)NCC3CCCCC3)cn2)c1 [Example 9, N-Cyclohexylmethyl-4-isopropyl-6-(3-methoxy-phenylamino)-nicotinamide]
  EC50: < 300 nM
  Emax: > 50%

## CC(C)c1cc(Nc2cccc(F)c2)ncc1C(=O)NCC1CCCCC1 [Example 10, N-Cyclohexylmethyl-6-(3-fluoro-phenylamino)-4-isopropyl-nicotinamide]
  EC50: < 300 nM
  Emax: > 50%

## CC(C)c1cc(Nc2cccc(Cl)c2)ncc1C(=O)N1CCOCC1 [Example 11, 1-[6-(3-Chloro-phenylamino)-4-isopropyl-pyridin-3-yl]-1-morpholin-4-yl-methanone]
  EC50: < 300 nM
  Emax: > 50%

## CC(C)c1cc(Nc2cccc(Br)c2)ncc1C(=O)NCC1CCCCC1 [Example 12, 6-(3-Bromo-cyclohexylmethyl-4-phenylamino)-N-isopropyl-nicotinamide]
  EC50: < 300 nM
  Emax: > 50%

## Cc1cccc(Nc2cc(C(C)C)c(C(=O)NCC3CCCCC3)cn2)c1 [Example 13, N-Cyclohexylmethyl-4-isopropyl-6-m-tolytamino-nicotinamide]
  EC50: < 300 nM
  Emax: > 50%

## CC(C)c1cc(Nc2cccc(C(F)(F)F)c2)ncc1C(=O)NCC1CCCCC1 [Example 14, N-Cyclohexylmethyl-4-isopropyl-6-(3-trifluoromethyl-phenylamino)-nicotinamide]
  EC50: < 300 nM
  Emax: > 50%

## CC(C)c1cc(Nc2cccc(OC(F)(F)F)c2)ncc1C(=O)NCC1CCCCC1 [Example 15, N-Cyclohexylmethyl-4-isopropyl-6-(3-trifluoromethoxy-phenylamino)-nicotinamide]
  EC50: < 300 nM
  Emax: > 50%

## CC(C)c1cc(Nc2cccc(Cl)c2Cl)ncc1C(=O)NCC1CCOCC1 [Example 16, 6-(2,3-Dichloro-phenylamino)-4-isopropyl-N-(tetrahydro-pyran-4-ylmethyl)-nicotinamide]
  EC50: < 300 nM
  Emax: > 50%

## CC(C)c1cc(Nc2ccc(Cl)cc2Cl)ncc1C(=O)NCC1CCOCC1 [Example 17, 6-(2,4-Dichloro-phenylamino)-4-isopropyl-N-(tetrahydro-pyran-4-ylmethyl)-nicotinamide]
  Emax: > 50%

## CC(C)c1cc(Nc2ccc(Cl)c(Cl)c2)ncc1C(=O)NCC1CCOCC1 [Example 18, 6-(3,4-Dichloro-phenylamino)-4-isopropyl-N-(tetrahydro-pyran-4-ylmethyl)-nicotinamide]
  EC50: < 300 nM
  Emax: > 50%

## CC(C)c1cc(Nc2cccc(C(F)(F)F)c2)ncc1C(=O)NCC1CCOCC1 [Example 19, 4-Isopropyl-N-(tetrahydro-pyran-4-ylmethyl)-6-(3-trifluoromethyl-phenylamino) nicotinamide]
  EC50: < 300 nM
  Emax: > 50%

## CC(C)c1cc(Nc2cccc(OC(F)(F)F)c2)ncc1C(=O)NCC1CCOCC1 [Example 20, 4-Isopropyl-N-(tetrahydro-pyran-4-ylmethyl)-6-(3-trifluoromethoxy-phenylamino) nicotinamide]
  EC50: < 300 nM
  Emax: > 50%

## CC(C)c1cc(Nc2cccc(Cl)c2)ncc1C(=O)NCC1CCCC1 [Example 21, 6-[(3-Chloro-phenyl)amino]-N-(cyclopentylmethyl)-4-isopropyl-nicotinamide]
  Emax: > 50%

## CC(C)c1cc(Nc2cccc(F)c2)ncc1C(=O)NCC1CCCC1 [Example 22, N-Cyclopentylmethyl-6-(3-fluorophenylamino)-4-isopropyl-nicotinamide]
  EC50: < 300 nM
  Emax: > 50%

## CC(C)c1cc(Nc2cccc(C(F)(F)F)c2)ncc1C(=O)NCC1CCCC1 [Example 23, N-Cyclopentylmethyl-4-isopropyl-6-(3-trifluoromethyl-phenylamino)-nicotinamide]
  EC50: < 300 nM
  Emax: > 50%

## Cc1cccc(Nc2cc(C(C)C)c(C(=O)NCC3CCCC3)cn2)c1 [Example 24, N-Cyclopentylmethyl-4-isopropyl-6-m-tolylamino-nicotinamide]
  EC50: < 300 nM
  Emax: > 50%

## CC(C)c1cc(Nc2cccc(OC(F)(F)F)c2)ncc1C(=O)NCC1CCCC1 [Example 25, N-Cyclopentylmethyl-4-isopropyl-6-(3-trifluoromethoxy-phenylamino)-nicotinamide]
  EC50: < 300 nM
  Emax: > 50%

## CC(C)c1cc(Nc2cccc(Br)c2)ncc1C(=O)NCC1CCCC1 [Example 26, 6-(3-Bromophenylamino)-N-cyclopentylmethyl-4-isopropyl-nicotinamide]
  EC50: < 300 nM
  Emax: > 50%

## COc1cccc(Nc2cc(C(C)C)c(C(=O)NCC3CCCC3)cn2)c1 [Example 27, N-Cyctopentylmethyl-4-isopropyl-6-(3-methoxyphenylamino) nicotinamide]
  EC50: < 300 nM
  Emax: > 50%

## CC(C)c1cc(Nc2cccc(C#N)c2)ncc1C(=O)NCC1CCCC1 [Example 28, 6-(3-Cyano-phenylamino)-N-cyclopentylmethyl-4-isopropyl-nicotinamide]
  EC50: < 300 nM
  Emax: > 50%

## CC(C)c1cc(Nc2ccc(F)cc2Cl)ncc1C(=O)NCC1CCCC1 [Example 29, 6-(2-Chloro-4-fluoro-phenylamino)-N-cyclopentylmethyl-4-isopropyl-nicotinamide]
  EC50: < 300 nM
  Emax: > 50%

## CC(C)c1cc(Nc2ccc(C#N)cc2Cl)ncc1C(=O)NCC1CCCC1 [Example 30, 6-(2-Chloro-4-cyano-phenylamino)-N-cyclopentylmethyl-4-isopropyl-nicotinamide]
  EC50: < 300 nM
  Emax: > 50%

## CC(C)c1cc(Nc2ccc(Cl)cc2Cl)ncc1C(=O)NCC1CCCC1 [Example 31]
  EC50: < 300 nM
  Emax: > 50%

## CC(C)c1cc(Nc2ccc(Cl)c(Cl)c2)ncc1C(=O)NCC1CCCC1 [Example 32]
  EC50: < 300 nM
  Emax: > 50%

## CC(C)c1cc(Nc2cccc(Br)c2)ncc1C(=O)NCC1CCC1 [Example 33, 6-(3-Bromo-phenylamino)-N-cyclobutylmethyl-4-isopropyl-nicotinamide]
  EC50: < 300 nM
  Emax: > 50%

## CC(C)c1cc(Nc2cccc(F)c2)ncc1C(=O)NCC1CCC1 [Example 34, N-Cyclobutylmethyl-6-(3-fluoro-phenylamino)-4-isopropyl-nicotinamide]
  EC50: < 300 nM
  Emax: > 50%

## CC(C)c1cc(Nc2cccc(C(F)(F)F)c2)ncc1C(=O)NCC1CCC1 [Example 35, N-Cyclobutylmethyl-6-(3-trifluoromethyl-phenylamino)-4-]
  EC50: < 300 nM
  Emax: > 50%

## CC(C)c1cc(Nc2cccc(C#N)c2)ncc1C(=O)NCC1CCC1 [Example 36, 6-(3-Cyano-phenylamino)-N-cyclobutylmethyl-4-isopropyl-nicotinamide]
  EC50: < 300 nM
  Emax: > 50%

## Cc1cccc(Nc2cc(C(C)C)c(C(=O)NCC3CCC3)cn2)c1 [Example 37, N-Cyclobutylmethyl-4-isopropyl-6-m-tolylamino-nicotinamide]
  Emax: > 50%
